Data as given in patent US20240294464A1, “SYNTHESIS OF RESTRAINED COMPLEXING AGENTS” (Genentech, Inc., priority 2021, published 2024).

Test: stability of compound 1 in prep-HPLC fractions
Format: physicochemical
Conditions: prep-HPLC fractions (0.01% TFA aqueous solution / acetonitrile); needs to freeze immediately for lyophilization
Excerpt: The crude compound 1 was purified by prep-HPLC (Mobile phase A: 0.01% TFA aqueous solution (v/v); Mobile phase B: Acetonitrile) and the purified product was lyophilized to give compound 1 with 98 A % HPLC purity as a white solid in 51% yield over two steps. (Note: The compound 1 in prep-HPLC fractions is not stable, and it needs to freeze immediately for lyophilization. The residual TFA in solid is 0.1 equiv to E)

O=C(O)CN(CC(=O)O)[C@@H]1CCCC[C@H]1N(CC(=O)O)Cc1ccc(CC(=O)Oc2c(F)c(F)cc(F)c2F)cc1 [compound 1, 2,2′-(((1R,2R)-2-((carboxymethyl)(4-(2-oxo-2-(2,3,5,6-tetrafluorophenoxy)ethyl)benzyl)amino)cyclohexyl)azanediyl)diacetic acid]
stability in prep-HPLC fractions: not stable
